Read-outs that look alike come from different tables or passages of the source. Values belong to the compound of their own block, whether it stands above or below them.
Key:
[1] = molecular target: PNMT; details: read-out: Ki^PEA; ref [85]; cited from earlier work
[2] = molecular target: T1, bovine PNMT (Bos taurus, UniProt P10938); details: read-out: PNMT Kis^PEA; bovine enzyme; ref [16]; cited from earlier work
T1 sequence (P10938 1-283): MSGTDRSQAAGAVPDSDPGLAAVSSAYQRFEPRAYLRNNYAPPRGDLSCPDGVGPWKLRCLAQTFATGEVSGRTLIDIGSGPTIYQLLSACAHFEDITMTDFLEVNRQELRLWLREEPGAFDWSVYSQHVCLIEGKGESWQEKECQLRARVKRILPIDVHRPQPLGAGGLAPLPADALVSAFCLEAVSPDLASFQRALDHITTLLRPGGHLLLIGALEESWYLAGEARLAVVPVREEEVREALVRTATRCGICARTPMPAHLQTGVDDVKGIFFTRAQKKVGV

[3] = molecular target: T2, human PNMT (hPNMT) (Homo sapiens, UniProt P11086); assay: radiochemical assay for hPNMT inhibitory potency
T2 sequence (P11086 1-282): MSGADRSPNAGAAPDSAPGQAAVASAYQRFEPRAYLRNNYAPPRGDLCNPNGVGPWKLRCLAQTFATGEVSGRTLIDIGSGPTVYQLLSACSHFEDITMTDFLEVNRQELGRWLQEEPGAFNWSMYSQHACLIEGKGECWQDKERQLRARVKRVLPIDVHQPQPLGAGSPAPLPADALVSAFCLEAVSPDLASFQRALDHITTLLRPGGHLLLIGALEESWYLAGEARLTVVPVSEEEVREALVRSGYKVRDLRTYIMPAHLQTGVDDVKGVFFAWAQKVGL

[4] = molecular target: T1, bovine PNMT; assay: PNMT inhibition, bovine enzyme; format: biochemical

Compound: c1ccc2c(c1)CCNC2 [Compound 10, 1,2,3,4-tetrahydroisoquinoline]
Ki [1]: 10 µM

Compound: NC(=O)C1Cc2ccccc2CN1 (centres unmarked) [Compound 13]
Ki [2]: 31 µM

greater potency as an inhibitor of hPNMT than 13 ([3]; 14 (aminomethyl) versus 13 (aminocarbonyl)): over 20 fold | Ki [4]: 1.4 µM
Compound: NCC1Cc2ccccc2CN1 (centres unmarked) [Compound 14]

Compound: tris(hydroxymethyl)amino methane
inhibition in PNMT assays ([3]; buffer component, prompted a switch to phosphate buffer): inhibition being observed

Reference: article PMC9052873 (Journal of medicinal chemistry, 2020)
